Experiments:
[1] = molecular target: T1, Human 5-HT2C receptor (Homo sapiens, UniProt P28335); experiment: 5-HT2C receptor binding; conditions: [3H]mesulergine, transfected CHO cell membranes; read-out: Serotonin Receptor Binding 5HT2C (IC50)
T1 construct: expressed in transfected cells; host or cells: CHO cells
T1 sequence (P28335 33-458): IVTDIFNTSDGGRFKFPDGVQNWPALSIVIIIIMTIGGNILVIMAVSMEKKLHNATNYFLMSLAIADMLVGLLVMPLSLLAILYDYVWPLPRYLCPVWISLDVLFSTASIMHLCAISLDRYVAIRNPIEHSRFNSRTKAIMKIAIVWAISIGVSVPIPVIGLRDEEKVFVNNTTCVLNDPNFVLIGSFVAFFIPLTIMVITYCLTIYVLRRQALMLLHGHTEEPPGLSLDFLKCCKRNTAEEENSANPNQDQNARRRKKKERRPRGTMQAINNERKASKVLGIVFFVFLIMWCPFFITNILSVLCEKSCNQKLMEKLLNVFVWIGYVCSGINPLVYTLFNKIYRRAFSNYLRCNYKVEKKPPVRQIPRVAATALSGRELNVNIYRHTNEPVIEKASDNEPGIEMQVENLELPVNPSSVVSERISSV
Protocol: (§1) Dopamine and serotonin receptor binding assays were performed in a standard manner with the incubation of membrane preparations in an assay buffer in the presence of a known radioactively labeled specific ligand for the receptor subtypes. Nonspecific binding was determined by assessing binding in the presence of excess ligand. Specific binding was measured as the total labeled ligand bound after the nonspecific binding was subtracted. The effect of the tested agents was measured by determining the competition for the receptor binding across a concentration range. Subsequently, an IC50 was determined for the agents tested. More specific details are provided below for several of the assays performed.
Aliquots of transfected CHO cell membrane preparations corresponding to 5-10 μg protein are incubated for 30 min at 37° C. in 250 μl of 50 mM Tris-HCl buffer (pH 7.7) containing 10 μM pargyline, 0.7 nM [^3H]mesulergine and increasing concentrations of the competing drugs. Nonspecific binding is determined in the presence of 1 μM mesulergine. After incubation, the samples are filtered rapidly under vacuum through glass fiber filters (GF/B, Packard) and rinsed several times with ice-cold 50 mM Tris-HCl using a cell harvester (Packard). Bound radioactivity is measured with a scintillation counter (Topcount, Packard) using a liquid scintillation cocktail (Microscint 0, Packard). The reference compound for this assay is mesulergine.

[2] = molecular target: α1 Receptor; experiment: α1 receptor binding; conditions: read-out: α1 Receptor Binding Alpha1 (IC50)
[3] = molecular target: T2, 5-HT6 (Homo sapiens, UniProt P50406); experiment: 5-HT6 receptor binding; conditions: read-out: Serotonin Receptor Binding 5-HT6 (IC50)
T2 construct: host or cells: membrane preparations
Protocol: as §1

[4] = molecular target: T3, Human D2 receptor (Homo sapiens, UniProt P14416); experiment: Dopamine D2 receptor binding; conditions: [3H]spiperone, transfected A9L cell membranes
T3 construct: expressed in transfected cells; host or cells: A9L cells
Protocol: as §1
Aliquots of transfected A9L cell membrane preparations corresponding to 20-40 μg protein are incubated for 60 min at 22° C. in 250 μl of 50 mM Tris-HCl buffer (pH 7.4) containing 120 mM NaCl, 5 mM KCl, 5 mM MgCl2, 1 mM EDTA, 0.3 nM [^3H]spiperone and increasing concentrations of the competing drugs. Nonspecific binding is determined in the presence of 10 μM (+)butaclamol. After incubation, the samples are filtered rapidly under vacuum through glass fiber filters (GF/B, Packard) and rinsed several times with ice-cold 50 mM Tris-HCl using a cell harvester (Packard). Bound radioactivity is measured with a scintillation counter (Topcount, Packard) using a liquid scintillation cocktail (Microscint 0, Packard). The reference compound for this assay is (+)butaclamol.

[5] = molecular target: T4, 5-HT2B (Homo sapiens, UniProt P41595); experiment: 5-HT2B receptor binding; conditions: read-out: Serotonin Receptor Binding 5-HT2B (IC50)
T4 construct: host or cells: membrane preparations
Protocol: as §1

[6] = molecular target: T5, 5-HT7 (Homo sapiens, UniProt P34969); experiment: 5-HT7 receptor binding; conditions: read-out: Serotonin Receptor Binding 5-HT7 (IC50)
T5 construct: host or cells: membrane preparations
Protocol: as §1

[7] = molecular target: T6, 5-HT5A (Homo sapiens, UniProt P47898); experiment: 5-HT5A receptor binding; conditions: read-out: Serotonin Receptor Binding 5-HT5A (IC50)
T6 construct: host or cells: membrane preparations
Protocol: as §1

[8] = molecular target: T7, D3 (Homo sapiens, UniProt P35462); experiment: Dopamine D3 receptor binding
T7 construct: host or cells: membrane preparations
Protocol: as §1

[9] = molecular target: T8, 5-HT1B (Homo sapiens, UniProt P28222); experiment: 5-HT1B receptor binding; conditions: read-out: Serotonin Receptor Binding 5-HT1B (IC50)
T8 construct: host or cells: membrane preparations
Protocol: as §1

[10] = molecular target: T9, serotonin uptake by rat cortex synaptosomes (Rattus norvegicus, UniProt P31652); experiment: Serotonin uptake functional assay; format: biochemical; conditions: [3H]5-hydroxytryptamin, read-out: Monoamine Neuronal Transport 5-HT Uptake (IC50)
T9 construct: from tissue; host or cells: male Wistar rat cortex synaptosomes
Protocol: Serotonin uptake functional assay
Characterization of serotonin uptake is performed using synaptosomes isolated in a 0.32 M sucrose buffer from a male Wistar rat cortex. The uptake of radiolabelled serotonin by synaptosomes (100 μg of proteins/point) is allowed by incubating them for 15 minutes at 37° C. in presence of test compounds and [3H]5-hydroxytryptamin (0.1 μCi/point). The experiment is performed in a deep well.
Synaptosomes and [3H]5-hydroxytryptamin are prepared in a Krebs buffer pH 7.4 containing 25 mM NaHCO3, 11 mM glucose and 50 μM ascorbic acid. This incubation buffer is oxygenated during 5 minutes before incubation. Basal control is incubated for 15 minutes at 4° C. in order to avoid any uptake. Following this incubation the uptake is stopped by filtration through an “unifilter 96-wells GF”Packard plate washed with Krebs buffer containing 25 mM NaHCO3 in order to eliminate the free [3H]5-hydroxytryptamin. The radioactivity associated to the synaptosomes retained onto the unifilter corresponding to the uptake is then measured with a microplate scintillation counter Topcount, Packard using a scintillation liquid microscint 0, Packard.
[See Perovics and Müiller “Pharmacological profile of hypericum extract: effect on serotonin uptake by postsynaptic receptors”, Arzeim Forsch/Drug Res. 45 1145-1148 (1995).]

[11] = molecular target: T10, D1 (Homo sapiens, UniProt P21728); experiment: Dopamine D1 receptor binding
T10 construct: host or cells: membrane preparations
Protocol: as §1

T2 sequence (P50406 whole entry, species assumed): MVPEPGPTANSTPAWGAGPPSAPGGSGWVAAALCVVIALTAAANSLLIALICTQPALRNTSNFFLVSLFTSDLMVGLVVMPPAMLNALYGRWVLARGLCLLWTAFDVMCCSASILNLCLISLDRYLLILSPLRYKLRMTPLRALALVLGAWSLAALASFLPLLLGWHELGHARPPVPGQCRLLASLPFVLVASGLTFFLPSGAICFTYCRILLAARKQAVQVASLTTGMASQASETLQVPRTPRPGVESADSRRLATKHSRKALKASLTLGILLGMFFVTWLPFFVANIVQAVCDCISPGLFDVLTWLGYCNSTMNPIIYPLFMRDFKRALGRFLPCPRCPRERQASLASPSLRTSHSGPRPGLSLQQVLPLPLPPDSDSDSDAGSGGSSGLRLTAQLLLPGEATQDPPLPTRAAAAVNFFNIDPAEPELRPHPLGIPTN
T10 sequence (P21728 whole entry): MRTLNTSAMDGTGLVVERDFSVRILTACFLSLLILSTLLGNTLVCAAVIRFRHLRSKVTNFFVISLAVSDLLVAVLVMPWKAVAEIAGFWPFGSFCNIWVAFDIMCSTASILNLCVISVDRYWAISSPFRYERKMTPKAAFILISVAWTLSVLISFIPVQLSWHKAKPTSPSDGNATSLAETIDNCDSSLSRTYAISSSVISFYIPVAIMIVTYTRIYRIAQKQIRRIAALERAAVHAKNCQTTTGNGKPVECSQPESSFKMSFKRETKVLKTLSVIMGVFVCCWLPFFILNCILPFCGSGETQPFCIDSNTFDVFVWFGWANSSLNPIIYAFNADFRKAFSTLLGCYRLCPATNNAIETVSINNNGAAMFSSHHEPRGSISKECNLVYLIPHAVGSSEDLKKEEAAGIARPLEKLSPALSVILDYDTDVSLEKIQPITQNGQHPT
T7 sequence (P35462 whole entry): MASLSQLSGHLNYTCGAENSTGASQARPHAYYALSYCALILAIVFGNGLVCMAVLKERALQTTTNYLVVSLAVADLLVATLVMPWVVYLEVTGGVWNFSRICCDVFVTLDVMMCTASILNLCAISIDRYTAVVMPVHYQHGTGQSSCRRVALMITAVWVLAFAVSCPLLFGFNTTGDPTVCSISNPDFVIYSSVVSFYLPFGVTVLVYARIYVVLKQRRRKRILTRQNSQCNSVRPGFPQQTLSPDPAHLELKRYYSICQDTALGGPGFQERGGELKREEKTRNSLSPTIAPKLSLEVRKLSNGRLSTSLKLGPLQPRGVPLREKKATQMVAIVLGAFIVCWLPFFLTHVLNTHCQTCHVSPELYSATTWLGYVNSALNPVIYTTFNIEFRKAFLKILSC
T6 sequence (P47898 whole entry, species assumed): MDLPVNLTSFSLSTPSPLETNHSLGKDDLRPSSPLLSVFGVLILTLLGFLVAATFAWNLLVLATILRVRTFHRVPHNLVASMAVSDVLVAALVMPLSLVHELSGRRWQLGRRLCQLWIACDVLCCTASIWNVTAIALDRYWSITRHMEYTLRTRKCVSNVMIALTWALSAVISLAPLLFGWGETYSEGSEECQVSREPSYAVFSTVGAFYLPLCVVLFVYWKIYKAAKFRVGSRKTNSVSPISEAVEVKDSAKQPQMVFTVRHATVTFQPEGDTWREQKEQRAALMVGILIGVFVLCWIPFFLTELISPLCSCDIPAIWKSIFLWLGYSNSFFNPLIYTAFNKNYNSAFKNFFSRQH
T8 sequence (P28222 whole entry, species assumed): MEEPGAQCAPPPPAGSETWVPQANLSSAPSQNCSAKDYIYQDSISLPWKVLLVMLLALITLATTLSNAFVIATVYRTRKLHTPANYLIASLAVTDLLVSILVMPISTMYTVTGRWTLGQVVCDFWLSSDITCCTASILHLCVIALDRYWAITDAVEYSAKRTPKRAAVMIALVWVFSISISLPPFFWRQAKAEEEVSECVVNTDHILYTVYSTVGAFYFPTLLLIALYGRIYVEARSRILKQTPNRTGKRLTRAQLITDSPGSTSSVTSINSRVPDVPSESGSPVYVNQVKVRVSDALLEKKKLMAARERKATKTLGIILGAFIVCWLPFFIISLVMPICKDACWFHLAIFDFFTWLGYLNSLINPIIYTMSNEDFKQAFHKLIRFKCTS
T3 sequence (P14416 whole entry): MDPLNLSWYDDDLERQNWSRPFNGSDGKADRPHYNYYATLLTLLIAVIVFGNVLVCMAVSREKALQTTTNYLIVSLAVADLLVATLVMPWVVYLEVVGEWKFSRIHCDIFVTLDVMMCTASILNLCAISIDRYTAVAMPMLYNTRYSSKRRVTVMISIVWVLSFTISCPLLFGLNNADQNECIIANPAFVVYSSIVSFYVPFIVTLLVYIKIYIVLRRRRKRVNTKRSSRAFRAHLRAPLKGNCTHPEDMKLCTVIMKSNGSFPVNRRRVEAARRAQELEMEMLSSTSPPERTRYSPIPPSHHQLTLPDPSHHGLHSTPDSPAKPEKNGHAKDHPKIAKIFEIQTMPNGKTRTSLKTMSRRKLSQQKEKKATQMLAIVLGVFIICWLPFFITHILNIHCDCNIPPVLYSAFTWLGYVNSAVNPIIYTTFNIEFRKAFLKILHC
T5 sequence (P34969 whole entry, species assumed): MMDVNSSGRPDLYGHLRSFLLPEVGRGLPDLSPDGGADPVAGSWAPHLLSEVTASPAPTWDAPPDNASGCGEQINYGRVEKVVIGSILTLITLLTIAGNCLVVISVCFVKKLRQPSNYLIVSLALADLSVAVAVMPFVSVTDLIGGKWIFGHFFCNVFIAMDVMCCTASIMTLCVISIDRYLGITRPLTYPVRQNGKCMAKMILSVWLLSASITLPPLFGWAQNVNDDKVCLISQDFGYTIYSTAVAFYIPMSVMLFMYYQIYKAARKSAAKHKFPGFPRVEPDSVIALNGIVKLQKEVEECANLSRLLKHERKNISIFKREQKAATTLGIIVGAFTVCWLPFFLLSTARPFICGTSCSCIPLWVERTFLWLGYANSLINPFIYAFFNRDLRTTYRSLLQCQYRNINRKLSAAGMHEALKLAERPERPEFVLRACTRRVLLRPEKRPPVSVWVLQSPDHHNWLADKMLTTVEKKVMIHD
T9 sequence (P31652 whole entry): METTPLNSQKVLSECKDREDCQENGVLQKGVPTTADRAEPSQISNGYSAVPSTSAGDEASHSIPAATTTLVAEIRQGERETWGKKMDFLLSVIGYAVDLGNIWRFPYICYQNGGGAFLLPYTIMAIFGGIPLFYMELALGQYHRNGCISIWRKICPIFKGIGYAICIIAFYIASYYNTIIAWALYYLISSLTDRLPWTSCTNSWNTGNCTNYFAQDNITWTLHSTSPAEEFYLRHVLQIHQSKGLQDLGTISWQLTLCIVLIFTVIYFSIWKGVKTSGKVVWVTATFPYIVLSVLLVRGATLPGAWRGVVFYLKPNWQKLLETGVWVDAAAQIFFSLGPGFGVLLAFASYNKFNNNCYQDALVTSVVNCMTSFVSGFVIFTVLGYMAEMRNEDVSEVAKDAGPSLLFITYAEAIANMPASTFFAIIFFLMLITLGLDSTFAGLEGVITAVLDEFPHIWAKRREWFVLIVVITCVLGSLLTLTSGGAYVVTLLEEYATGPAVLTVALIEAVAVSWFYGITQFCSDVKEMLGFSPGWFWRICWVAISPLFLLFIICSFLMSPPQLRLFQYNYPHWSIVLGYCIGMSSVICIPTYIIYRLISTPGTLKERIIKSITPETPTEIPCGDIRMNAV
T4 sequence (P41595 whole entry, species assumed): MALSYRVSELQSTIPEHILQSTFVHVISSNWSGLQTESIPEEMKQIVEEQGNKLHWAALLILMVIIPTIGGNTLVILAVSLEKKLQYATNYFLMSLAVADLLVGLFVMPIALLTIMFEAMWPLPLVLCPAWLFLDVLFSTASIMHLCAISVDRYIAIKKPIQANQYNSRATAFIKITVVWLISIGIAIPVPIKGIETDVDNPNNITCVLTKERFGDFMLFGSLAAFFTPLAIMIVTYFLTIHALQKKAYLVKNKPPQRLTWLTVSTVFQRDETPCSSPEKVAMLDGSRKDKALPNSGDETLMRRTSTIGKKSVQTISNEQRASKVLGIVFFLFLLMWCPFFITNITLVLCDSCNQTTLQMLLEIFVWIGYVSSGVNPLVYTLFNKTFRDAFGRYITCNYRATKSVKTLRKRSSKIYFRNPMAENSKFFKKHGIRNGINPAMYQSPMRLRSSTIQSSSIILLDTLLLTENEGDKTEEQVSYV

IC50 [1] [nM]	IC50 [2] [nM]	IC50 [3] [nM]	IC50 [4] [nM]	IC50 [5] [nM]	IC50 [6] [nM]	IC50 [7] [nM]	IC50 [8] [nM]	IC50 [9] [nM]	IC50 [10] [nM]	IC50 [11] [nM]	SMILES
46	381	856	1420	34	61	2230	2560	4550	500	2270	CC(O)c1nn(CCCN2CCN(c3cccc(Cl)c3)CC2)c(=O)n1CCOc1ccccc1 (racemic) [(RS)-OH, 2-[3-[4-(3-chlorophenyl)1-piperazinyl]propyl]-5-(1-hydroxyethyl)-2,4-dihydro-4-(phenoxyethyl)-3H-1,2,4-triazol-3-one, reference compound]
33	367	1020	1690	28	71	2040	3490	3610	640	1690	C[C@@H](O)c1nn(CCCN2CCN(c3cccc(Cl)c3)CC2)c(=O)n1CCOc1ccccc1 [(R)-OH, (R)-hydroxynefazodone]
34	419	489	788	41	60	1970	1910	2840	790	2310	C[C@H](O)c1nn(CCCN2CCN(c3cccc(Cl)c3)CC2)c(=O)n1CCOc1ccccc1 [(S)-OH, (S)-2-{3-[4-(3-Chlorophenyl)-1-piperazinyl]propyl}-4-(2-phenoxyethyl)-5-[1-(hydroxy)-ethyl]-2,4-dihydro-[1,2,4]triazol-3-one]
